Settings: Liquid, Closed cell (Static) method

FC(F)(F)C(F)(F)F [hexafluoroethane]
Settings | vapor or sublimation pressure [kPa]
243.33 K | 769
245.32 K | 816
249.31 K | 928
253.29 K | 1048
257.31 K | 1183
261.29 K | 1328
265.28 K | 1489
269.27 K | 1659
273.27 K | 1847
277.24 K | 2050
281.23 K | 2270
283.23 K | 2387
285.23 K | 2509
287.22 K | 2636
289.22 K | 2769
290.23 K | 2839
290.72 K | 2873
291.22 K | 2909
291.72 K | 2946
292.22 K | 2982

— the NIST ThermoML archive (doi:10.1016/j.fluid.2007.06.012)
